Measured values from patent US6511971B1, “Substituted perhalogenated phthalocyanines” (Brown University Research Foundation, priority 1998, dated 2003).

Columns and labels:
[1] = system: EMT-6 mouse mammary tumor cells; assay: In vitro phototoxicity: cell photo-inactivation, MTT cell survival assay; type: cell-based; conditions: EMT-6 cells
Experimental: Chremophor emulsions were prepared and cell photo inactivation was determined by J. E. van Lier and colleagues at the University of Sherbrooke, Sherbrooke, QC, Canada, in accordance with published procedures. (Alleman et al. Int. J. Cancer, 72:289-294 (1997))
Chremophor EL (CRM) was obtained from BASF (Toronto, Canada). All solvents were of analytical grade, and all other chemicals were commercially available products. Zinc octakis (perfluoroisopropyl) perfluorophthalocyanine (“ZnPcF64”, 2.5 mg) was first dissolved in methanol (2 mL). 500 μL of Chremophor and 150 μL of propane diol were added to the solution. The methanol was evaporated by rotory evaporation at room temperature. The residue was diluted with PBS to 5 mL and sterile filtered (0.2 μm). […]
After incubation, cells were rinsed twice with PBS, refed with 100 μl Waymouth 15% FBS and exposed to red light. […] The fluence rate calculated over the absorbance peaks of the dyes (660-700 nm) was 10 mW cm^−2, for a total fluence of 0.6-36 J/cm^2. […] Plates were incubated overnight at 37° C., after which the absorbance was read at 595 nm by means of a microplate reader (BioRad, Mississauga, Canada). The average absorbance of the blank wells in which cells were omitted was subtracted from the readings of the other wells. The average absorbance of the control cells, which were incubated with dye-free Waymouth 1% FBS, represents 100% cell survival. […]

EMT-6 tumor = assay: In vivo phototoxicity: photodynamic therapy in murine EMT-6 tumor model; design: species or system BALB/c mice; conditions: CRM emulsion
Experimental: The in vivo phototoxicity effects of ZnPcF64 on mouse tumors were determined by J. E. van Lier and colleagues at the University of Sherbrooke, Sherbrooke, QC, Canada, in accordance with published procedures. (Alleman et al. Int. J. Cancer, 72:289-294 (1997))
Experiments were performed on male BALB/c mice (16-22 g) and female Fisher CDF (F-344) rats (approx. 150 g) (Charles River, Montreal, Canada) following a protocol approved by the Canadian Council on Animal Care and an in-house ethics committee. Animals were allowed free access to water and food throughout the course of the experiments. Before tumor implantation, hair on the hind legs and back of the mice was removed by shaving and chemical depilating (Nair®, Whitehall, Mississauga, Canada). A tumor was implanted on each hind thigh by intradermal injection of 2 times 10^5 EMT-6 cells suspended in 0.05 ml Waymouth's growth medium. Biodistribution and photodynamic activity of ZnPcF64 were assayed using a murine EMT-6 tumor model (Allémann et al. Int. J. Cancer, 72:289-294 (1997)).
For PDT studies, mice were used 6-8 days after tumor inoculation (tumor size: 3-5 mm diameter, 2-3 mm thickness). At this time point, the tumor is sufficiently large to be measured, while therapeutic response can be observed without interference of spontaneous necrosis (Margaron et al. Anticancer Res. 16:613-620 (1996)). Animals were given an i.v. injection of ZnPcF64 formulated as a CRM emulsion at I or 2.5 μmol kg^−1 (0.2 ml), and one tumor was treated with red light 24-72 hr later, while the other tumor served as a control. Tumors were illuminated with an 8-mm diameter beam of 650-700 nm light ([…] for a total fluence of 100-400 J .cm^−2) generated by a 1,000 W Xenon lamp, equipped with a 10-cm circulating water filter and 2 glass filters (Corion LL650 and LS700, Holliston, Mass.). A positive tumor response (necrosis) was assigned to tumors which appeared macroscopically as flat and necrotic tissues within a few days after PDT (Allémann et al. Int. J Canc. 66:821-824 (1996)). […]

## Zinc Octakis (perfluoroisopropyl) Perfluorophthalocyanine, Bis-acetone Solvate [ZnPcF64]
[1]; CRM emulsion at 1 and 3 μM, 1 or 24 hours incubation, red light 660-700 nm, 0.6-36 J/cm^2, any conditions
  phototoxic effects: No phototoxic effects
[1]; highest dye concentrations and longest light exposure
  Cell survival: 100%
EMT-6 tumor; 1 μmol/kg i.v., 650-700 nm light 24-72 hr later, EMT-6 tumor in mice
  tumor response after PDT: complete tumor necrosis
EMT-6 tumor; 1 μmol/kg i.v., 650-700 nm light, EMT-6 tumor in mice
  inflammation after PDT: some inflammation
EMT-6 tumor; 2.5 μmol/kg i.v., tumor-bearing mice
  outcome of treated mice (lethality): died of shock
